Target: T1, Prostacyclin Receptors (IP Receptors) of Human Thrombocyte Membranes (Homo sapiens, UniProt P43119)
T1 construct: Thrombocyte membranes are obtained by centrifuging 50 ml of human blood; tissue Maco Pharma, Langen (buffy coats); host or cells: human thrombocyte (platelet) membranes from human blood
Assay: Binding to prostacyclin receptors (IP receptors) of human thrombocyte membranes, 3H-Iloprost displacement
Details: 3 nM 3H-Iloprost, 60 min, room temperature
Experimental: B-1. Studies of Binding to Prostacyclin Receptors (IP Receptors) of Human Thrombocyte Membranes
Thrombocyte membranes are obtained by centrifuging 50 ml of human blood (Buffy coats with CDP Stabilizer, from Maco Pharma, Langen) for 20 min at 160×g. Remove the supernatant (platelet-rich plasma, PRP) and then centrifuge again at 2000×g for 10 min at room temperature. Resuspend the sediment in 50 mM tris(hydroxymethyl)amino-methane, which has been adjusted to a pH of 7.4 with 1 N hydrochloric acid, and store at −20° C. overnight. On the next day, centrifuge the suspension at 80 000×g and 4° C. for 30 min. Discard the supernatant. Resuspend the sediment in 50 mM tris(hydroxy-methyl)aminomethane/hydrochloric acid, 0.25 mM ethylene diamine tetraacetic acid (EDTA), pH 7.4, and then centrifuge once again at 80 000×g and 4° C. for 30 min. Take up the membrane sediment in binding buffer (50 mM tris(hydroxymethyl)-aminomethane/hydrochloric acid, 5 mM magnesium chloride, pH 7.4) and store at −70° C. until the binding test.
For the binding test, incubate 3 nM ^3H-Iloprost (592 GBq/mmol, from AmershamBioscience) for 60 min with 300-1000 μg/ml of human thrombocyte membranes per charge (max. 0.2 ml) in the presence of the test substances at room temperature. After stopping, add cold binding buffer to the membranes and wash with 0.1% bovine serum albumin. After adding Ultima Gold Scintillator, quantify the radioactivity bound to the membranes using a scintillation counter. The nonspecific binding is defined as radioactivity in the presence of 1 μM Iloprost (from Cayman Chemical, Ann Arbor) and is as a rule <25% of the bound total radioactivity. The binding data (IC50 values) are determined using the program GraphPad Prism Version 3.02.

T1 sequence (P43119 whole entry): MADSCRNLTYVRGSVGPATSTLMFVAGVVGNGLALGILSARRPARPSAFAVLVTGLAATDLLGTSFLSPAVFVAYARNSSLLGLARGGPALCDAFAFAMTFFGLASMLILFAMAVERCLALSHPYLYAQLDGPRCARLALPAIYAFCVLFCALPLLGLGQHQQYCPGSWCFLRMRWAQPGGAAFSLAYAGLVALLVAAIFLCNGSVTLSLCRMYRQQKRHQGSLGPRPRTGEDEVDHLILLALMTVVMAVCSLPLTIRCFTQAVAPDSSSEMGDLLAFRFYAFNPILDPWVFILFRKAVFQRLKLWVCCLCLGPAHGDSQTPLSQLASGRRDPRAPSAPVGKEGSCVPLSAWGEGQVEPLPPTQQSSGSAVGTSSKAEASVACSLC

IC50 [µM] | SMILES
1.05 | CCCC(=O)/C=C/c1c(-c2ccccc2)oc2ncnc(O[C@H](C)CCCCC(=O)O)c12 [Example 17]
0.545 | C=CCOC(=O)/C=C/c1c(-c2ccccc2)oc2ncnc(O[C@H](C)CCCCC(=O)O)c12 [Example 15]
0.013 | CCOC(=O)/C(C)=C/c1c(-c2ccccc2)oc2ncnc(O[C@H](C)CCCCC(=O)O)c12 [Example 16, (6R)-6-({5-[(1E)-3-ethoxy-2-methyl-3-oxoprop-1-en-1-yl]-6-phenylfuro[2,3-d]pyrimidin-4-yl}oxy)heptanoic acid]
0.132 | CCCNC(=O)/C(C)=C/c1c(-c2ccccc2)oc2ncnc(O[C@H](C)CCCCC(=O)O)c12 [Example 21, (6R)-6-({5-[(1E)-2-methyl-3-oxo-3-(propylamino)prop-1-en-1-yl]-6-phenylfuro[2,3-d]pyrimidin-4-yl}oxy)heptanoic acid]
